Test results published in patent US20240336611A1 (Insilico Medicine IP Limited, priority 2021, published 2024).

Assays:
[1] = target: T1, TNIK kinase [amino acid sequence (1-367), Invitrogen] (Homo sapiens, UniProt Q9UKE5); test: TNIK kinase inhibition assay (Z-lyte FRET-peptide); assay type: biochemical; details: 0.625 nM TNIK kinase, 2 μM Ser/Thr 7 peptide, 64 μM ATP, one hour at room temperature
T1 construct: purchased Invitrogen

[2] = Metabolic stability in human liver microsomes; assay type: in vitro ADME; details: LM Clint (intrinsic clearance); 1 μM test compound, 0.5 mg protein/mL microsome, 37° C., up to 60 min

T1 sequence (Q9UKE5 1-367): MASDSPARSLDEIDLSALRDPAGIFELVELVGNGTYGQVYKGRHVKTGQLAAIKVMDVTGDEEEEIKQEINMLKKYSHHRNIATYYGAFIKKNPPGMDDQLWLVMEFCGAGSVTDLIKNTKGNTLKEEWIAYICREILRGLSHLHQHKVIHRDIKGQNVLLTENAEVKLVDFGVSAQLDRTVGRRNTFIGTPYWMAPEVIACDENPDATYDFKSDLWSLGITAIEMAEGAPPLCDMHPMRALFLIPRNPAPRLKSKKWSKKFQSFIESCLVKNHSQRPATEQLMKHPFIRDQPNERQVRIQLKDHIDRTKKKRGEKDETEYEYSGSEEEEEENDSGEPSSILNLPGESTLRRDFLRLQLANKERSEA

Row | IC50 [1] [nM] | Human Liver Microsome (μM/min/mg) [2] | SMILES
1 | 1 to 12 | ++ (10-100 μM/min/mg as ++) | COCCN1CC(c2ccc(NC(=O)c3csc(-c4c(-c5ccc(F)cc5)ncn4C(C)C)n3)nc2)C1 [Compound 109, 2-(4-(4-fluorophenyl)-1-isopropyl-1H-imidazol-5-yl)-N-(5-(1-(2-methoxyethyl)azetidin-3-yl)pyridin-2-yl)thiazole-4-carboxamide]
2 | 1 to 12 | +++ (1-10 μM/min/mg as +++) | [2H]C([2H])([2H])N1CC(c2ccc(NC(=O)c3c[nH]c(-c4c(-c5ccc(F)cc5)ncn4C(C)C)n3)c(F)c2)C1 [Compound 114, 2-[5-(4-fluorophenyl)-3-isopropyl-imidazol-4-yl]-N-[2-fluoro-4-[1-(trideuteriomethyl)azetidin-3-yl]phenyl]-1H-imidazole-4-carboxamide]
3 | 1 to 12 | ++ (10-100 μM/min/mg as ++) | [2H]C([2H])([2H])N1CC(c2ccc(NC(=O)c3csc(-c4c(-c5ccc(F)cc5)noc4C(C)C)n3)nc2)C1 [Compound 115, 2-[3-(4-fluorophenyl)-5-isopropyl-isoxazol-4-yl]-N-[5-[1-(trideuteriomethyl)azetidin-3-yl]-2-pyridyl]thiazole-4-carboxamide]
4 | 1 to 12 | ++ (10-100 μM/min/mg as ++) | CC(C)n1cnc(-c2ccc(F)cc2)c1-c1nc(C(=O)Nc2ccc(N3CCP(C)(=O)CC3)cc2F)cs1 [Compound 117, N-(2-fluoro-4-(4-methyl-4-oxido-1,4-azaphosphinan-1-yl)phenyl)-2-(4-(4-fluorophenyl)-1-isopropyl-1H-imidazol-5-yl)thiazole-4-carboxamide]
5 | 1 to 12 | ++ (10-100 μM/min/mg as ++) | [2H]C([2H])([2H])N1CC(c2ccc(NC(=O)c3nc(-c4c(-c5ccc(F)cc5)ncn4C4CCC4)cs3)nc2)C1 [Compound 121, 4-(1-cyclobutyl-4-(4-fluorophenyl)-1H-imidazol-5-yl)-N-(5-(1-(trideuteriomethyl)azetidin-3-yl)pyridin-2-yl)thiazole-2-carboxamide]
6 | 1 to 12 | ++ (10-100 μM/min/mg as ++) | [2H]C([2H])([2H])N1CC(c2ccc(NC(=O)c3nc(-c4c(-c5ccc(F)cc5)ncn4C4CCC4)cs3)c(F)c2)C1 [Compound 122, 4-[3-cyclobutyl-5-(4-fluorophenyl)imidazol-4-yl]-N-[2-fluoro-4-[1-(trideuteriomethyl)azetidin-3-yl]phenyl]thiazole-2-carboxamide]
7 | 1 to 12 | ++ (10-100 μM/min/mg as ++) | [2H]C([2H])([2H])N1CC(c2ccc(NC(=O)c3csc(-c4c(-c5ccc(F)c(Cl)c5)ncn4C(C)C)n3)nc2)C1 [Compound 123, 2-[5-(3-chloro-4-fluoro-phenyl)-3-isopropyl-imidazol-4-yl]-N-[5-[1-(trideuteriomethyl)azetidin-3-yl]-2-pyridyl]thiazole-4-carboxamide]
8 | 1 to 12 | ++ (10-100 μM/min/mg as ++) | [2H]C([2H])([2H])N1CCN(c2ccc(NC(=O)c3c[nH]c(-c4c(-c5ccc(F)cc5)ncn4C(C)C)n3)nc2)CC1 [Compound 124, 2-[5-(4-fluorophenyl)-3-isopropyl-imidazol-4-yl]-N-[5-[4 (trideuteriomethyl)piperazin-1-yl]-2-pyridyl]-1H-imidazole-4-carboxamide]
9 | 1 to 12 | ++ (10-100 μM/min/mg as ++) | [2H]C([2H])([2H])N1CCN(c2ccc(NC(=O)c3c[nH]c(-c4c(-c5ccc(F)cc5)ncn4C([2H])(C)C)n3)nc2)CC1 [Compound 125, 2-[3-(1-deuterio-1-methyl-ethyl)-5-(4-fluorophenyl)imidazol-4-yl]-N-[5-[4-(trideuteriomethyl)piperazin-1-yl]-2-pyridyl]-1H-imidazole-4-carboxamide]
10 | 1 to 12 | ++ (10-100 μM/min/mg as ++) | [2H]C([2H])([2H])N1CCN(c2ccc(NC(=O)c3c[nH]c(-c4c(-c5ccc(F)cc5)ncn4C(C)C)n3)c(F)c2)CC1 [Compound 126, 2-[5-(4-fluorophenyl)-3-isopropyl-imidazol-4-yl]-N-[2-fluoro-4-[4-(trideuteriomethyl)piperazin-1-yl]phenyl]-1H-imidazole-4-carboxamide]
11 | 1 to 12 | ++ (10-100 μM/min/mg as ++) | [2H]C([2H])([2H])N1CCN(c2ccc(NC(=O)c3c[nH]c(-c4c(-c5ccc(F)cc5)ncn4C([2H])(C)C)n3)c(F)c2)CC1 [Compound 127, 2-[3-(1-deuterio-1-methyl-ethyl)-5-(4-fluorophenyl)imidazol-4-yl]-N-[2-fluoro-4-[4-(trideuteriomethyl)piperazin-1-yl]phenyl]-1H-imidazole-4-carboxamide]
